According to patent publication US12286632B2, “Rationally-designed synthetic peptide shuttle agents for delivering polypeptide cargos from an extracellular space to the cytosol and/or nucleus of a target eukaryotic cell, uses thereof, methods and kits relating to same” (Feldan Bio Inc., priority 2016, dated 2025):

Tests used:
[1] = tested on: THP-1 cells; assay: GFP-NLS protein transduction assay (flow cytometry: Pos cells %, viability %, relative fluorescence intensity; microscopy)
Experimental: One day before the transduction assay was performed, cells in exponential growth phase were harvested and plated in a 96-well plate (20,000 cells per well). The cells were incubated overnight in appropriate growth media containing FBS (see Example 1). The next day, in separate sterile 1.5 mL tubes, cargo protein at the indicated concentration was pre-mixed (pre-incubated) for 1 or 10 min (depending on the protocol) at 37° C. with the peptide(s) to be tested shuttle agents (0.5 to 5 μM) in 50 μL of fresh medium without serum (unless otherwise specified). The media in wells was removed and the cells were washed three times with freshly prepared phosphate buffered saline (PBS) previously warmed at 37° C. The cells were incubated with the cargo protein/shuttle agent mixture at 37° C. for the indicated time (e.g., 1, 5 or 60 min). After the incubation, the cells were quickly washed three times with freshly prepared PBS and/or heparin (0.5 mg/mL) previously warmed at 37° C. The washes with heparin were required for human THP-1 blood cells to avoid undesired cell membrane-bound protein background in subsequent analyses (microscopy and flow cytometry). The cells were finally incubated in 50 μL of fresh medium with serum at 37° C. before analysis.
One day before the transduction assay was performed, suspension cells in exponential growth phase were harvested and plated in a 96-well plate (20,000 cells per well). The cells were incubated overnight in appropriate growth media containing serum (see Example 1). The next day, in separate sterile 1.5-mL tubes, peptides were diluted in sterile distilled water at room temperature (if the cargo is or comprised a nucleic acid, nuclease-free water was used). Cargo protein(s) were then added to the peptides and, if necessary, sterile PBS or cell culture medium (serum-free) was added to obtain the desired concentrations of shuttle agent and cargo in a sufficient final volume to resuspend the cells (e.g., 10 to 100 μL per well in a 96-well plate). The shuttle agent/peptide was then immediately used for experiments. At least three controls were included for each experiment, including: (1) peptide alone (e.g., at highest concentration tested); (2) cargo alone; and (3) without any cargo or shuttle agent. The cells were centrifuged for 2 minutes at 400g, the medium was then removed and the cells were resuspended in PBS previously warmed at 37° C. The cells were centrifuged again 2 minutes at 400g, the PBS removed, and the cells were resuspended with the cargo protein/peptide mixture at 37° C. for the desired length of time. After that, 200 μL of complete medium was added directly on the cells. Cells were centrifuged for 2 minutes at 400g and the medium was removed. The pellet was resuspended and washed in 200 μL of PBS previously warmed at 37° C. After another centrifugation, the PBS was removed and the cells were resuspended in 50 μL of trypsin-EDTA solution for 2 min. 200 of complete medium was directly added and cells were centrifuged for 2 minutes at 400g. The medium was removed and the cells were resuspended in 200 μL of complete medium.
The cells incubated in 50 μL of fresh medium were directly observed by microscopy (Bright-field and fluorescence) at different power fields (4× to 40×). The cells were observed using a CoolSNAP-PRO™ camera (Series A02D874021) and images were acquired using the Image-Proplus™ software.
The fluorescence of GFP was quantified using flow cytometry (Accuri C6, Becton, Dickinson and Company (BD)).

[2] = tested on: HeLa cells; assay: FITC-labeled anti-tubulin antibody transduction assay (flow cytometry, cell viability, microscopy); settings: antibody 0.5 μM; shuttle 50 μM; 10 seconds, Protocol B
Experimental: The delivery and microscopy protocols are described in Example 3.
HeLa cells were cultured and tested in the protein transduction assay described in Example 3.1. […] The cells were subjected to flow cytometry analysis as described in Example 3.3.

[3] = tested on: HT2 cells; assay: GFP-NLS transduction in different adherent and suspension cells (flow cytometry, Pos cells % and viability %); format: cell-based; settings: Protocol C, 5 μM shuttle, 5 μM GFP-NLS, 15 seconds
Experimental: (§1) The ability of the shuttle agent His-CM18-PTD4 to deliver GFP-NLS to the nuclei of different adherent and suspension cells using Protocols B (adherent cells) or C (suspension cells) as described in Example 9.1 was examined. The cell lines tested included: HeLa, Balb3T3, HEK 293T, CHO, NIH3T3, Myoblasts, Jurkat, THP-1, CA46, and HT2 cells, which were cultured as described in Example 1. GFP-NLS (5 μM; see Example 5.1) was co-incubated with 35 μM of His-CM18-PTD4 and exposed to adherent cells for 10 seconds (Protocol B), or was co-incubated with 5 μM of His-CM18-PTD4 and exposed to suspension cells for 15 seconds (Protocol C). […] “Pos cells (%)” is the mean percentages of all cells that emanate a GFP signal.

[4] = tested on: NIH3T3 cells; assay: as above; format: cell-based; settings: Protocol B, 35 μM shuttle, 5 μM GFP-NLS, 10 seconds
Experimental: (§2) The media in wells was removed, cells were washed once with PBS previously warmed at 37° C., and the shuttle agent/cargo mixture was then added to cover all cells for the desired length of time. The shuttle agent/cargo mixture in wells was removed, the cells were washed once with PBS, and fresh complete medium was added. Before analysis, the cells were washed once with PBS and fresh complete medium was added.
as §1

[5] = tested on: Balb3T3 cells; assay: as above; format: cell-based; settings: Protocol B, 35 μM shuttle, 5 μM GFP-NLS, 10 seconds
Experimental: as §2, §1

[6] = tested on: CA46 cells; assay: as above; format: cell-based, Homo sapiens; settings: Protocol C, 5 μM shuttle, 5 μM GFP-NLS, 15 seconds
Experimental: as §1

[7] = THP-1, Protocol C, 5 μM shuttle, 5 μM GFP-NLS, 15 seconds

CC[C@H](C)[C@H](NC(=O)[C@H](CCCCN)NC(=O)[C@H](CCCCN)NC(=O)[C@H](Cc1ccccc1)NC(=O)[C@H](CC(C)C)NC(=O)[C@H](CCCCN)NC(=O)[C@H](Cc1c[nH]c2ccccc12)NC(=O)[C@H](CCCCN)NC(=O)[C@H](Cc1c[nH]cn1)NC(=O)[C@H](Cc1c[nH]cn1)NC(=O)[C@H](Cc1c[nH]cn1)NC(=O)[C@H](Cc1c[nH]cn1)NC(=O)[C@H](Cc1c[nH]cn1)NC(=O)[C@@H](N)Cc1c[nH]cn1)C(=O)NCC(=O)N[C@@H](C)C(=O)N[C@H](C(=O)N[C@@H](CC(C)C)C(=O)N[C@@H](CCCCN)C(=O)N[C@H](C(=O)N[C@@H](CC(C)C)C(=O)N[C@H](C(=O)N[C@H](C(=O)NCC(=O)N[C@@H](Cc1ccc(O)cc1)C(=O)N[C@@H](C)C(=O)N[C@@H](CCCNC(=N)N)C(=O)N[C@@H](C)C(=O)N[C@@H](C)C(=O)N[C@@H](C)C(=O)N[C@@H](CCCNC(=N)N)C(=O)N[C@@H](CCC(N)=O)C(=O)N[C@@H](C)C(=O)N[C@@H](CCCNC(=N)N)C(=O)N[C@@H](C)C(=O)O)[C@@H](C)O)[C@@H](C)O)C(C)C)C(C)C [His-CM18-PTD4]
GFP-NLS intracellular delivery after repeated daily treatments (in words) ([1]; 0.5 or 0.8 μM shuttle, 150 min each day, in the presence of serum): result in intracellular delivery of GFP-NLS | Mean % cells with GFP signal (±St. Dev.; n = 3) ([1]; Protocol C, THP-1, 1 μM shuttle, 5 μM GFP-NLS, incubation 15 sec): 23.7 ± 0.2% | Mean % cells with GFP signal (±St. Dev.; n = 3) ([1]; Protocol C, THP-1, 1 μM shuttle, 5 μM GFP-NLS, incubation 30 sec): 53 ± 0.3% | Mean % cells with GFP signal (±St. Dev.; n = 3) ([1]; Protocol C, THP-1, 1 μM shuttle, 5 μM GFP-NLS, incubation 60 sec): 69.6 ± 4.2% | Mean % cells with GFP signal (±St. Dev.; n = 3) ([1]; Protocol C, THP-1, 1 μM shuttle, 5 μM GFP-NLS, incubation 120 sec): 89 ± 0.8% | Cell viability (%) (±St. Dev.; n = 3) [1, 7]: 64.1 ± 4.5% | Mean % cells with GFP signal (±St. Dev.; n = 3) [1, 7]: 64.1 ± 1.6% | Mean % cells with GFP signal (±St. Dev.; n = 3) ([1]; THP-1, serum, daily 150 min, 0.5 μM shuttle, 5 μM GFP-NLS, 1 day exposure): 12.1 ± 1.5% | Mean % cells with GFP signal (±St. Dev.; n = 3) ([1]; THP-1, serum, daily 150 min, 0.5 μM shuttle, 5 μM GFP-NLS, 3 days exposure): 73.4 ± 1.1% | Mean % cells with GFP signal (±St. Dev.; n = 3) ([1]; THP-1, serum, daily 150 min, 0.8 μM shuttle, 1 μM GFP-NLS, 1 day exposure): 1.6 ± 0.2% | Mean % cells with GFP signal (±St. Dev.; n = 3) ([1]; THP-1, serum, daily 150 min, 0.8 μM shuttle, 1 μM GFP-NLS, 3 days exposure): 6.5 ± 0.9% | Mean % cells with GFP signal (±St. Dev.; n = 3) ([1]; THP-1, serum, daily 150 min, 0.8 μM shuttle, 2.5 μM GFP-NLS, 1 day exposure): 12.2 ± 0.9% | Mean % cells with GFP signal (±St. Dev.; n = 3) ([1]; THP-1, serum, daily 150 min, 0.8 μM shuttle, 2.5 μM GFP-NLS, 3 days exposure): 62.4 ± 3.5% | Mean % cells with GFP signal (±St. Dev.; n = 3) ([1]; Table 9.3, Protocol A, THP-1, shuttle 1 μM, GFP-NLS 5 μM, 1 hour): 14.2 ± 2.2% | Mean % cells with GFP signal (±St. Dev.; n = 3) ([1]; Table 9.3, Protocol C, THP-1, shuttle 0.5 μM, GFP-NLS 5 μM, 15 seconds): 34.9 ± 3.8% | Mean % cells with GFP signal (±St. Dev.; n = 3) ([1]; Table 9.3, Protocol C, THP-1, shuttle 5 μM, GFP-NLS 5 μM, 15 seconds): 64.1 ± 1.6% | GFP-NLS intracellular delivery (microscopy / FACS, in words) ([1]; shuttle 5 μM, GFP-NLS 5 μM, 15 seconds, Protocol C): successfully delivered intracellularly | antibody delivery (microscopy, in words) [2]: successfully transduced and delivered to the nucleus and/or the cytosol | Cell viability (%) (±St. Dev.; n = 3) [3]: 90.6 ± 1.5% | Mean % cells with GFP signal (±St. Dev.; n = 3) [3]: 30.5 ± 2.5% | Cell viability (%) (±St. Dev.; n = 3) [4]: 3.3 ± 5.4% | Mean % cells with GFP signal (±St. Dev.; n = 3) [4]: 35.4 ± 3.9% | Cell viability (%) (±St. Dev.; n = 3) [5]: 98.4 ± 0.6% | Mean % cells with GFP signal (±St. Dev.; n = 3) [5]: 40.2 ± 3.1% | Cell viability (%) (±St. Dev.; n = 3) [6]: 71.6 ± 1.0% | Mean % cells with GFP signal (±St. Dev.; n = 3) [6]: 24.4 ± 0.6%
